Values of other authors as cited in patent US20070135423A1, “E-fluoro-4-(pyridin-2-yl)-piperidine-1-carboxamide derivatives and related compounds which modulate the function of the vanilloid-1 receptor (vr1) for the treatment of pain” (priority 2003, published 2007).

Molecular target: VR1 (Rattus norvegicus, UniProt O35433)
Settings: Wahl et al., Mol. Pharmacol, 59:9, 2001

VR1, sequence (O35433 whole entry): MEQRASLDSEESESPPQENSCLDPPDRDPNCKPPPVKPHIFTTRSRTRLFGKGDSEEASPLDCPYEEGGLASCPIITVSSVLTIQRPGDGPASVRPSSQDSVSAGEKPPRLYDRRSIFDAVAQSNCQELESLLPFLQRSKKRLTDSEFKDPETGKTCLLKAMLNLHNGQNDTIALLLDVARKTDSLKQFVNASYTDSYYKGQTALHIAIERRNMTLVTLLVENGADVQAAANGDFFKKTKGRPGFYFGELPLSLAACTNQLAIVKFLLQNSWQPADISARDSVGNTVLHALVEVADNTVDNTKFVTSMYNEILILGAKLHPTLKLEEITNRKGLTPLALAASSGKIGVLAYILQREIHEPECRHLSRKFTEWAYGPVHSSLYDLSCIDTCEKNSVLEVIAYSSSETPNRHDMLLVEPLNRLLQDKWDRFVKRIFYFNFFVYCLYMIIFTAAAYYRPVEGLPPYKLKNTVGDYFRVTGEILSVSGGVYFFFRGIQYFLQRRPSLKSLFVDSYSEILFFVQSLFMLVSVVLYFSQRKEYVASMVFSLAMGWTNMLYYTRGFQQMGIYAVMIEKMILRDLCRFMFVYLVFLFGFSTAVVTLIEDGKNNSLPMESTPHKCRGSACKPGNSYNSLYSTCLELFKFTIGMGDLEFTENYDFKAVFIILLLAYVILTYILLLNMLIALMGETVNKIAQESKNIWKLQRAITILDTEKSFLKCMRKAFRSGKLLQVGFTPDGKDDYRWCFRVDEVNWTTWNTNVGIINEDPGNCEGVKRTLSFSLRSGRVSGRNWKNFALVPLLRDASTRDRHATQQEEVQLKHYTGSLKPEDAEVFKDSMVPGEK

## C=C(C)[C@]12C[C@@H](C)[C@@]34O[C@](Cc5ccccc5)(O[C@@H]1[C@@H]3C=C(COC(=O)Cc1cc(I)c(O)c(OC)c1)C[C@]1(O)C(=O)C(C)=C[C@@H]41)O2 [Iodo-resiniferatoxin]
  VR1 antagonist potency (in words): nanomolar antagonist
